# Assay results from US20130041330A1, “MICRO-NEEDLE DEVICE AND PREPARATION METHOD” (HISAMITSU PHARMACEUTICAL CO., INC., priority 2010, published 2013).
# Legend:
# [1] = Viscosity measurement of octreotide acetate physiologically active composition (micron sample viscometer); assay type: physicochemical; conditions: 25° C.
# Experimental: The octreotide acetate concentration and the propylene glycol or glycerin concentration were adjusted as shown in Table 3 and Table 4 to prepare a physiologically active composition. The viscosity of the obtained physiologically active composition was measured ten times with a micron sample viscometer (RHEOSENSE INC., Micron Sample-Viscometer/Rheometer-on-a-chip VROCTM), and the mean value was calculated to be shown in Table 3 and Table 4.
# [2] = Viscosity imparting test in nonaqueous formulation (polymer compound solubility and viscosity); assay type: physicochemical; conditions: 25° C.
# Experimental: With respect to each solvent of propylene glycol and glycerin, polymer compounds shown in Table 5 and Table 6 were added to prepare mixed solutions. Each concentration of the polymer compounds was designed in consideration of the molecular weight and the like. […] Separately, the viscosity of the mixed solution or the solution after the stirring was determined with a micron sample viscometer at 25° C.
Compound,Viscosity Avg. ([1]; octreotide acetate 20 / glycerin 80 % by weight),Viscosity Avg. ([1]; octreotide acetate 20 / propylene glycol 80 % by weight) [cps],Viscosity Avg. ([1]; octreotide acetate 30 / glycerin 70 % by weight),Viscosity Avg. ([1]; octreotide acetate 35 / glycerin 65 % by weight),Viscosity Avg. ([1]; octreotide acetate 40 / glycerin 60 % by weight),Viscosity Avg. ([1]; octreotide acetate 40 / propylene glycol 60 % by weight),Viscosity Avg. ([1]; octreotide acetate 50 / glycerin 50 % by weight),Viscosity Avg. ([1]; octreotide acetate 50 / propylene glycol 50 % by weight),Viscosity Avg. ([1]; octreotide acetate 60 / glycerin 40 % by weight),Viscosity Avg. ([1]; octreotide acetate 60 / propylene glycol 40 % by weight),Viscosity Avg. ([1]; octreotide acetate 70 / propylene glycol 30 % by weight),Viscosity Avg. ([1]; octreotide acetate 80 / propylene glycol 20 % by weight),"Viscosity ([2]; glycerin, additive concentration 0.5 % by mass)","Viscosity ([2]; propylene glycol, additive concentration 1.0 % by mass) [mPa · s]"
C[C@@H](O)[C@@H]1NC(=O)[C@H](CCCCN)NC(=O)[C@@H](Cc2c[nH]c3ccccc23)NC(=O)[C@H](Cc2ccccc2)NC(=O)[C@@H](NC(=O)[C@H](N)Cc2ccccc2)CSSC[C@@H](C(=O)N[C@H](CO)[C@@H](C)O)NC1=O [Octreotide acetate],"2,900 cps",200,"9,000 cps","12,000 cps","15,000 cps","1,600 cps","21,000 cps","5,400 cps","27,000 cps","15,000 cps","45,000 cps","133,000 cps",,
Protamine,,,,,,,,,,,,,"1,442 mPa · s",53
